In brackets after ≈: the same amount, converted by molar mass. Activity calls are given as the source filed them. No cut-off for these calls is given here.
Key:
Bacillus subtilis = test: Antibacterial activity against Bacillus subtilis ATCC 9372 incubated for 24 hrs by CLSI protocol based broth microdilution method; assay type: functional; conditions: ATCC 9372, 24 h
Bacillus pumilus = test: Antibacterial activity against Bacillus pumilus CMCC63202 incubated for 24 hrs by CLSI protocol based broth microdilution method; assay type: functional; conditions: CMCC63202, 24 h
Staphylococcus aureus [1] = test: Antibacterial activity against Staphylococcus aureus ATCC 25923 incubated for 24 hrs by CLSI protocol based broth microdilution method; assay type: functional; conditions: ATCC 25923, 24 h
Staphylococcus aureus [2] = test: Antibacterial activity against methicillin-resistant Staphylococcus aureus ATCC 43300 incubated for 24 hrs by CLSI protocol based broth microdilution method; assay type: functional; conditions: ATCC 43300, 24 h
Staphylococcus aureus [3] = test: Antibacterial activity against penicillin-resistant Staphylococcus aureus clinical isolate incubated for 24 hrs by CLSI protocol based broth microdilution method; assay type: functional
Escherichia coli = test: Antibacterial activity against Escherichia coli ATCC 25922 incubated for 24 hrs by CLSI protocol based broth microdilution method; assay type: functional; conditions: ATCC 25922, 24 h
Pseudomonas aeruginosa = test: Antibacterial activity against Pseudomonas aeruginosa ATCC 27853 incubated for 24 hrs by CLSI protocol based broth microdilution method; assay type: functional; conditions: ATCC 27853, 24 h
[4] = target: T1, Cell division protein FtsZ (Bacillus subtilis (strain 168)) (UniProt P17865); test: Induction of Bacillus subtilis FtsZ polymerization in presence of GTP at 5 ug/ml measured over 30 mins by microtiter plate-based light-scattering assay
T1 sequence (whole entry): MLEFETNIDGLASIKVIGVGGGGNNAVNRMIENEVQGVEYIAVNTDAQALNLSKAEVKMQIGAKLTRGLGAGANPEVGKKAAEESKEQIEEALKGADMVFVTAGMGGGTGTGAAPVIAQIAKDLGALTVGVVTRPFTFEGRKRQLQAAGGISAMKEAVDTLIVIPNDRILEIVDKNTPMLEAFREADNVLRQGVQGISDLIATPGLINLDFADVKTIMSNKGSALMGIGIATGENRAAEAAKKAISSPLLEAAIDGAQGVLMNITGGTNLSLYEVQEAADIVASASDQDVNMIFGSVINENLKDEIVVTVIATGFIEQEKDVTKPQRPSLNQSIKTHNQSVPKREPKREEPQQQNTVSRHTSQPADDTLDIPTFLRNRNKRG

Staphylococcus aureus [5] = test: Antibacterial activity against Staphylococcus aureus clinical isolate incubated for 24 hrs by CLSI protocol based broth microdilution method; assay type: functional

| Structure (SMILES) | MIC (Bacillus subtilis) [µg/mL] | MIC (Bacillus pumilus) [µg/mL] | MIC (Staphylococcus aureus [1]) [µg/mL] | MIC (Staphylococcus aureus [2]) [µg/mL] | MIC (Staphylococcus aureus [3]) [µg/mL] | MIC (Escherichia coli) [µg/mL] | MIC (Pseudomonas aeruginosa) [µg/mL] | Activity [4] | MIC (Staphylococcus aureus [5]) [µg/mL] |
| --- | --- | --- | --- | --- | --- | --- | --- | --- | --- |
| NC(=O)c1c(F)ccc(OCC2=NN(c3ccc(Br)cc3)C(=O)C2)c1F | > 64 | > 64 | > 64 | > 64 | > 64 | > 64 | > 64 | inactive |  |
| CCn1c(COc2ccc(F)c(C(N)=O)c2F)nn(-c2ccc(Br)cc2)c1=O | > 64 | > 64 | > 64 | > 64 | > 64 | > 64 | > 64 | inactive |  |
| NC(=O)c1c(F)ccc(OCc2nn(-c3ccc(F)cc3)c(=O)o2)c1F | 2 (≈ 5.48 µM) | 8 (≈ 21.9 µM) | 16 (≈ 43.8 µM) | 8 (≈ 21.9 µM) | 16 (≈ 43.8 µM) | > 64 | > 64 |  | 2 (≈ 5.48 µM) |
| NC(=O)c1c(F)ccc(OCc2nn(-c3ccc(Cl)cc3)c(=O)o2)c1F | 0.25 (≈ 0.655 µM) | 2 (≈ 5.24 µM) | 1 (≈ 2.62 µM) | 2 (≈ 5.24 µM) | 2 (≈ 5.24 µM) | > 64 | > 64 |  | 2 (≈ 5.24 µM) |
| COc1ccc(-n2nc(COc3ccc(F)c(C(N)=O)c3F)oc2=O)cc1 | 1 (≈ 2.65 µM) | 8 (≈ 21.2 µM) | 2 (≈ 5.3 µM) | 4 (≈ 10.6 µM) | 4 (≈ 10.6 µM) | > 64 | > 64 |  | 4 (≈ 10.6 µM) |
| NC(=O)c1c(F)ccc(OCc2nn(-c3ccc(Cl)c(Cl)c3)c(=O)o2)c1F | 4 (≈ 9.61 µM) | 4 (≈ 9.61 µM) | > 64 | 64 (≈ 154 µM) | > 64 | > 64 | > 64 |  | 64 (≈ 154 µM) |
| Cc1cccc(-n2nc(COc3ccc(F)c(C(N)=O)c3F)oc2=O)c1 | 16 (≈ 44.3 µM) | 64 (≈ 177 µM) | 64 (≈ 177 µM) | 64 (≈ 177 µM) | > 64 | > 64 | > 64 |  | 64 (≈ 177 µM) |
| CCc1ccc(-n2nc(COc3ccc(F)c(C(N)=O)c3F)oc2=O)cc1 | 0.5 (≈ 1.33 µM) | 4 (≈ 10.7 µM) | 2 (≈ 5.33 µM) | 2 (≈ 5.33 µM) | 4 (≈ 10.7 µM) | > 64 | > 64 |  | 2 (≈ 5.33 µM) |
| NC(=O)c1c(F)ccc(OCCc2nn(-c3ccc(Br)cc3)c(=O)o2)c1F | 1 (≈ 2.27 µM) | ≤ 0.125 | 4 (≈ 9.09 µM) | 2 (≈ 4.54 µM) | 4 (≈ 9.09 µM) | > 64 | > 64 |  | 4 (≈ 9.09 µM) |
| CCCCc1ccc(-n2nc(COc3ccc(F)c(C(N)=O)c3F)oc2=O)cc1 | 0.015 (≈ 0.0372 µM) | 0.5 (≈ 1.24 µM) | > 64 | 64 (≈ 159 µM) | > 64 | > 64 | > 64 |  | 2 (≈ 4.96 µM) |
| Cc1cc(Cl)ccc1-n1nc(COc2ccc(F)c(C(N)=O)c2F)oc1=O | 0.5 (≈ 1.26 µM) | 0.5 (≈ 1.26 µM) | 4 (≈ 10.1 µM) | 2 (≈ 5.05 µM) | 4 (≈ 10.1 µM) | > 64 | > 64 |  | 4 (≈ 10.1 µM) |
| NC(=O)c1c(F)ccc(OCc2nn(Cc3ccc(Cl)cc3)c(=O)o2)c1F | 8 (≈ 20.2 µM) | 32 (≈ 80.9 µM) | > 64 | 64 (≈ 162 µM) | > 64 | > 64 | > 64 |  | > 64 |
| NC(=O)c1c(F)ccc(OCn2nc(-c3ccc(Cl)cc3)oc2=O)c1F | > 64 | > 64 | > 64 | > 64 | > 64 | > 64 | > 64 | inactive | > 64 |
| NC(=O)c1c(F)ccc(OCc2nn(-c3cccc(Cl)c3)c(=O)o2)c1F | 8 (≈ 21 µM) | > 64 | > 64 | > 64 | > 64 | > 64 | > 64 |  | > 64 |
| NC(=O)c1c(F)ccc(OCc2nn(-c3ccccc3)c(=O)o2)c1F | 4 (≈ 11.5 µM) | 64 (≈ 184 µM) | 16 (≈ 46.1 µM) | 16 (≈ 46.1 µM) | 32 (≈ 92.1 µM) | > 64 | > 64 |  | 16 (≈ 46.1 µM) |
| CC(C)(C)c1ccc(-n2nc(CCOc3ccc(F)c(C(N)=O)c3F)oc2=O)cc1 | 0.25 (≈ 0.599 µM) | ≤ 0.125 | 4 (≈ 9.58 µM) | 1 (≈ 2.4 µM) | 4 (≈ 9.58 µM) | > 64 | > 64 |  | 2 (≈ 4.79 µM) |
| NC(=O)c1c(F)ccc(OCc2nn(Cc3ccc(Br)cc3)c(=O)o2)c1F | 8 (≈ 18.2 µM) | 32 (≈ 72.7 µM) | > 64 | 64 (≈ 145 µM) | > 64 | > 64 | > 64 |  | 64 (≈ 145 µM) |
| Cc1ccccc1-n1nc(COc2ccc(F)c(C(N)=O)c2F)oc1=O | 16 (≈ 44.3 µM) | 16 (≈ 44.3 µM) | > 64 | 64 (≈ 177 µM) | > 64 | > 64 | > 64 |  | > 64 |
| Cc1ccc(-n2nc(COc3ccc(F)c(C(N)=O)c3F)oc2=O)c(C)c1 | 2 (≈ 5.33 µM) | 2 (≈ 5.33 µM) | 32 (≈ 85.3 µM) | 16 (≈ 42.6 µM) | 64 (≈ 171 µM) | > 64 | > 64 |  | 32 (≈ 85.3 µM) |
| CC(C)(C)c1ccc(Cn2nc(COc3ccc(F)c(C(N)=O)c3F)oc2=O)cc1 | 32 (≈ 76.7 µM) | 32 (≈ 76.7 µM) | > 64 | > 64 | > 64 | > 64 | > 64 |  | > 64 |
| CC(C)(C)c1ccc(-n2nc(COc3ccc(F)c(C(N)=O)c3F)oc2=O)cc1 | 1 (≈ 2.48 µM) | 2 (≈ 4.96 µM) | 8 (≈ 19.8 µM) | 8 (≈ 19.8 µM) | 16 (≈ 39.7 µM) | > 64 | > 64 |  | 16 (≈ 39.7 µM) |
| CC(C)(C)n1nc(COc2ccc(F)c(C(N)=O)c2F)oc1=O | 32 (≈ 97.8 µM) | > 64 | > 64 | > 64 | > 64 | > 64 | > 64 |  | 16 (≈ 48.9 µM) |
| NC(=O)c1c(F)ccc(OCc2nn(-c3ccc(C(F)(F)F)cc3)c(=O)o2)c1F | 0.125 (≈ 0.301 µM) | 2 (≈ 4.82 µM) | 4 (≈ 9.63 µM) | 2 (≈ 4.82 µM) | 4 (≈ 9.63 µM) | > 64 | > 64 |  | 4 (≈ 9.63 µM) |
